# Results as given in patent publication US7271278B2, “Application of chromium-amino acid complexes in the treatment of diabetes and other diseases” (The University of Wyoming, priority 2005, dated 2007).
# Assays:
# [1] = Deoxyribose degradation assay for generation of hydroxyl radicals; conditions: chromium picolinate 1.2 μM; Ferric-EDTA 100 μM; ascorbic acid and hydrogen peroxide 100 μM
# Experimental: The potential of chromium compounds to generate hydroxyl radicals in vitro was assessed by the method reported previously (Halliwell et al. (1987) Anal. Biochem., 165:215-219). Briefly, a reaction mixture containing either chromium picolinate or Cr(pa)3, 2-deoxyribose (4 mM), ascorbic acid (100 μM) and hydrogen peroxide (100 μM) in potassium phosphate buffer (pH 7.4, 10 mM) was incubated at 37° C. for 30 minutes. An aliquot of the mixture was treated with 1% (w/v) thiobarbituric acid and 2.8% (w/v) trichloroacetic acid and heated at 90° C. for 10 minutes, rapidly cooled and the amount of chromogen formed in the sample was measured by its absorption at 532 nm. Ferric-EDTA (100 μM) was used as a positive control.
# 3T3-adipocytes = assay: 2-deoxy-D-[3H] glucose uptake in 3T3-L1 adipocytes; format: cell-based, mouse; conditions: insulin 6 nM during differentiation
# Experimental: The 3T3-L1-pre-adipocytes were obtained from the American Type Culture Collection and were propagated at 37° C. in DMEM with 10% newborn calf serum plus 50 U/ml penicillin and 50 μg/ml streptomycin in an incubator under a humidified atmosphere of 5% CO2/95% air. Induction of differentiation was done one day post-confluence. Cells were maintained in differentiation medium of the following composition: DMEM, 10% FBS, […] dexamethasone, 0.5 mM 1-isobutyl-3-methylxanthine (IBMX) and ITS for three days. At day 3, the dexamethasone and IBMX were removed with ITS remaining on the cells for an additional two days. Differentiation was allowed to continue in DMEM supplemented with 10% FBS, ITS and the adipocytes were used between day 9 and 14 post-induction. Prior to the cellular assays, cells were serum starved by overnight incubation in DMEM (containing 0.2% serum).
# Glucose uptake activity was analyzed by measuring the uptake of 2-deoxy-D-[^3H] glucose as described previously (Sakoda et al. (1999) Diabetes, 48:1365-1371). Briefly, confluent 3T3-L1 adipocytes grown in 6-well plates were washed twice with serum-free DMEM and incubated with 2 ml of the same medium at 37° C. for 2 hours. The cells were washed 3 times with Krebs-Ringer-HEPES (KRH) buffer and incubated with 2 ml KRH buffer at 37° C. for 30 minutes. Insulin (6 nM) and/or Cr(pa)3 (0-25 μM) were then added to adipocytes accompanying the procedure of differentiation. Glucose uptake was initiated by the addition of 0.1 ml KRH buffer and 2-deoxy-D-[^3H] glucose (0.2 μCi/ml) and 5 mM glucose as final concentrations. Glucose uptake was terminated by washing the cells three times with cold PBS. The cells were lysed overnight with 1 ml 0.5M NaOH and 0.1% SDS (w/v). The radioactivity retained by the cell lysates was determined by a scintillation counter (Beckmann LC 6000IC) and normalized to protein amount measured with a Micro BCA Protein Assay Kit (Pierce Chemical, Rockford, Ill.).
Molecule,hydroxyl radical production over control / reagent blank [1],increase in glucose uptake by adipocytes (3T3-adipocytes)
"O=C([O-])CN(CCN(CC(=O)[O-])CC(=O)O)CC(=O)[O-].[Fe+3] [Ferric-EDTA, reference compound]",about 3.5 fold,–
insulin,–,fourfold
